Source: the supplement of paper PMC10307832

Legend:
Experiment in all cases: relative viability (nuclei count vs DMSO), 5 days (fraction); higher = more cells survive
[1] = compound: CCC1=CN=CN=C1N2CCN(CC2)CC3=NC4=C(N3)C=C(C=C4)C(F)(F)F + CS(=O)(=O)N1CCN(Cc2cc3nc(-c4cccc5[nH]ncc45)nc(N4CCOCC4)c3s2)CC1 [Pictilisib] (partner 1 µM)
Method in brief: (§1)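 Values are medians from duplicate plates. Each reflects relative viability, defined as the nuclei count of treated wells over that of vehicle wells. Lung cancer cell lines in 1536-well plates were pin-tool dosed one day after seeding with one drug alone or with a fixed anchor-drug dose plus five library-drug doses (not always all listed) in √10 steps, then fixed, stained and imaged at 4× after 5 days.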

Mirin + Pictilisib = compound: N=C1NC(=O)/C(=C/c2ccc(O)cc2)S1 [Mirin] + CS(=O)(=O)N1CCN(Cc2cc3nc(-c4cccc5[nH]ncc45)nc(N4CCOCC4)c3s2)CC1 [Pictilisib] (partner 1 µM)
Method in brief: as §1

[2] = compound: CCC1=CN=CN=C1N2CCN(CC2)CC3=NC4=C(N3)C=C(C=C4)C(F)(F)F + Nc1ncn([C@H]2C[C@H](O)[C@@H](CO)O2)c(=O)n1 [Decitabine] (partner 2 µM)
Method in brief: as §1

[3] = compound: CCn1c(-c2nonc2N)nc2cnc(Oc3cccc(NC(=O)c4ccc(OCCN5CCOCC5)cc4)c3)cc21 + CS(=O)(=O)N1CCN(Cc2cc3nc(-c4cccc5[nH]ncc45)nc(N4CCOCC4)c3s2)CC1 [Pictilisib] (partner 1 µM)
Method in brief: as §1

Cell Line | relative viability ([1]; first compound 0.04 µM) | relative viability ([1]; first compound 0.1265 µM) | relative viability ([1]; first compound 0.4 µM) | relative viability ([1]; first compound 1.265 µM) | relative viability ([1]; first compound 4 µM) | relative viability (Mirin + Pictilisib; first compound 0.25 µM) | relative viability (Mirin + Pictilisib; first compound 2.5 µM) | relative viability (Mirin + Pictilisib; first compound 7.906 µM) | relative viability (Mirin + Pictilisib; first compound 25 µM) | relative viability ([2]; first compound 0.04 µM) | relative viability ([2]; first compound 0.1265 µM) | relative viability ([2]; first compound 0.4 µM) | relative viability ([2]; first compound 1.265 µM) | relative viability ([2]; first compound 4 µM) | relative viability ([3]; first compound 0.04 µM) | relative viability ([3]; first compound 0.1265 µM) | relative viability ([3]; first compound 0.4 µM) | relative viability ([3]; first compound 1.265 µM) | relative viability ([3]; first compound 4 µM) | relative viability (Mirin + Pictilisib; first compound 0.7906 µM)
SW 1573 | 0.441 | 0.43 | 0.44 | 0.474 | 0.426 | 0.473 | 0.466 | 0.355 | 0.289 | 0.471 | 0.425 | 0.57 | 0.378 | 0.478 | 0.545 | 0.507 | 0.492 | 0.487 | 0.312 | –
NCI-H1975 | 0.311 | 0.307 | 0.268 | 0.287 | 0.288 | 0.307 | 0.302 | 0.355 | 0.282 | 0.358 | 0.396 | 0.41 | 0.339 | 0.393 | 0.253 | 0.192 | 0.157 | 0.143 | 0.148 | 0.251
SK-LU-1 | 0.573 | 0.494 | 0.469 | – | 0.486 | 0.742 | 0.588 | 0.464 | 0.328 | 0.512 | 0.6 | 0.623 | 0.605 | 0.614 | 0.686 | 0.448 | 0.432 | 0.336 | 0.416 | 0.555
A549 | 0.547 | 0.488 | 0.467 | 0.507 | 0.426 | 0.541 | 0.55 | 0.403 | 0.321 | 0.277 | 0.121 | 0.237 | 0.265 | 0.247 | 0.801 | 0.408 | 0.436 | 0.139 | 0.0926 | 0.512
NCI-H460 | 0.41 | 0.291 | 0.36 | 0.224 | 0.395 | 0.347 | 0.347 | 0.333 | 0.235 | 0.535 | 0.424 | 0.496 | 0.435 | 0.452 | 0.462 | 0.404 | 0.207 | 0.122 | 0.182 | 0.152
LCLC-103H | 0.599 | 0.614 | 0.499 | 0.435 | 0.559 | 0.63 | 0.536 | 0.714 | 0.739 | 0.708 | 0.698 | 0.712 | 0.748 | 0.728 | 0.764 | 0.596 | 0.435 | 0.455 | 0.576 | 0.532
HCC-78 | 0.143 | 0.299 | 0.203 | 0.206 | 0.178 | 0.203 | 0.205 | 0.207 | 0.215 | 0.667 | 0.501 | 0.643 | 0.6 | 0.674 | 0.3 | 0.311 | 0.208 | 0.262 | 0.367 | 0.2
NCI-H1915 | 0.916 | 0.899 | 0.931 | 0.687 | 0.963 | 0.98 | 1.04 | 0.916 | 0.935 | 0.24 | 0.262 | 0.261 | 0.272 | 0.263 | 1.01 | 0.971 | 0.908 | 0.648 | 0.64 | –
